Source: patent publication US10206400B2, “Insecticidal compounds based on isoxazoline derivatives” (Syngenta Crop Protection LLC, priority 2009, dated 2019)

How the values were obtained:
Format in all cases: in vivo
Thrips tabaci = Thrips tabaci (onion thrips) leaf disc spray test; conditions: foliar, 168 h, 200 ppm spray on sunflower leaf discs, mixed ages, 7 days, mortality
Experimental: [The procedure below names another target; the source lists this target under the same test.] Sunflower leaf discs were placed on agar in a 24-well microtiter plate and sprayed with test solutions at an application rate of 200 ppm. After drying, the leaf discs were infested with an […] population of mixed ages. After an incubation period of 7 days, samples were checked for mortality.

Tetranychus urticae = Tetranychus urticae (two-spotted spider mite) leaf disc spray test; conditions: foliar, 192 h, 200 ppm spray on bean leaf discs, mixed ages, 8 days, egg, larval and adult mortality
From the text: Bean leaf discs on agar in 24-well microtiter plates were sprayed with test solutions at an application rate of 200 ppm. After drying, the leaf discs are infested with mite populations of mixed ages. 8 days later, discs are checked for egg mortality, larval mortality, and adult mortality.

Diabrotica balteata = Diabrotica balteata (corn root worm) artificial diet test; conditions: 120 h, 200 ppm (concentration in well 18 ppm), L2 larvae, 5 days, larval mortality, growth regulation
Experimental: (§1) A 24-well microtiter plate (MTP) with artificial diet was treated with test solutions at an application rate of 200 ppm (concentration in well 18 ppm) by pipetting. After drying, the MTP's were infested with L2 larvae (6-10 per well). After an incubation period of 5 days, samples were checked for larval mortality and growth regulation.

Heliothis virescens = Heliothis virescens (tobacco budworm) egg/artificial diet test; conditions: 96 h, 200 ppm (concentration in well 18 ppm), eggs 0-24 h old on artificial diet, 4 days, egg mortality, larval mortality, growth regulation
Experimental: Eggs (0-24 h old) were placed in 24-well microtiter plate on artificial diet and treated with test solutions at an application rate of 200 ppm (concentration in well 18 ppm) by pipetting. After an incubation period of 4 days, samples were checked for egg mortality, larval mortality, and growth regulation.

Spodoptera littoralis = Spodoptera littoralis (Egyptian cotton leafworm) leaf disc spray test; conditions: foliar, 72 h, 200 ppm spray on cotton leaf discs, L1 larvae, mortality, feeding behavior, growth regulation 3 days after treatment
From the text: Cotton leaf discs were placed on agar in a 24-well microtiter plate and sprayed with test solutions at an application rate of 200 ppm. After drying, the leaf discs were infested with 5 L1 larvae. The samples were checked for mortality, feeding behavior, and growth regulation 3 days after treatment (DAT).

Plutella xylostella = Plutella xylostella (diamond back moth) artificial diet test; conditions: 144 h, 200 ppm (concentration in well 18 ppm), L2 larvae, 6 days, larval mortality, growth regulation
Experimental: as §1, with “24-well” for “A 24-well”, “(7-12” for “(6-10”, “6” for “5”

Myzus persicae = Myzus persicae (green peach aphid), systemic test; conditions: 144 h, roots of infested pea seedlings in test solution, 6 days, mortality, special effects on the plant
From the text: Myzus persicae (Green peach aphid), systemic test: Roots of pea seedlings, infested with an aphid population of mixed ages, are placed directly in the test solutions at an application rate of 12.5 ppm. 6 days after introduction, samples are checked for mortality and special effects on the plant. The following compounds gave at least 80% control of Myzus persicae: A3, B2, B3, B5, B6, B7, B8, B11, B12, C1, C2, C3,C4, C5, C6, C7, D1, E1, E2, G1, G3, G5, G6, H1, H5, H6, H9, H10, H11, H12, H13, H14, H18, H19, H20, H24, H25, and H26.

CCN1OC[C@H](NC(=O)c2ccc(C3=NO[C@@](c4cc(Cl)cc(Cl)c4)(C(F)(F)F)C3)cc2C)C1=O [Compound G3, 4-[5-(3,5-dichloro-phenyl)-5-(S)-trifluoromethyl-4,5-dihydro-isoxazol-3-yl]-2-methyl-N—((S)-2-ethyl-3-oxo-isoxazolidin-4-yl)-benzamide]
≥ 80%: pest or weed control at 200 ppm (Thrips tabaci) | pest or weed control at 200 ppm (Tetranychus urticae) | pest or weed control at 200 ppm (Diabrotica balteata) | pest or weed control at 200 ppm (Heliothis virescens) | pest or weed control at 200 ppm (Spodoptera littoralis) | pest or weed control at 200 ppm (Plutella xylostella) | pest or weed control at 12.5 ppm (Myzus persicae)

COCCN1OC[C@@H](NC(=O)c2ccc(C3=NOC(c4cc(Cl)cc(Cl)c4)(C(F)(F)F)C3)cc2C)C1=O (stereo partly drawn) [Compound B7, 4-[5-(3,5-Dichloro-phenyl)-5-trifluoromethyl-4,5-dihydro-isoxazol-3-yl]-2-methyl-N-((R)-2-(2-methoxyethyl)-3-oxo-isoxazolidin-4-yl)-benzamide]
≥ 80%: pest or weed control at 200 ppm (Thrips tabaci) | pest or weed control at 200 ppm (Tetranychus urticae) | pest or weed control at 200 ppm (Diabrotica balteata) | pest or weed control at 200 ppm (Heliothis virescens) | pest or weed control at 200 ppm (Spodoptera littoralis) | pest or weed control at 200 ppm (Plutella xylostella) | pest or weed control at 12.5 ppm (Myzus persicae)

Cc1cc(C2=NOC(c3cc(Cl)cc(Cl)c3)(C(F)(F)F)C2)ccc1C(=O)NC1CSSC1 (stereo not shown) [Compound A1, 4-[5-(3,5-Dichloro-phenyl)-5-trifluoromethyl-4,5-dihydro-isoxazol-3-yl]-N-[1,2]dithiolan-4-yl-2-methyl-benzamide]
≥ 80%: pest or weed control at 200 ppm (Thrips tabaci) | pest or weed control at 200 ppm (Diabrotica balteata) | pest or weed control at 200 ppm (Heliothis virescens) | pest or weed control at 200 ppm (Spodoptera littoralis) | pest or weed control at 200 ppm (Plutella xylostella)

CCN1OC(CNC(=O)c2ccc(C3=NOC(c4cc(Cl)cc(Cl)c4)(C(F)(F)F)C3)cc2C)CC1=O (stereo not shown) [Compound F3, 4-[5-(3,5-Dichloro-phenyl)-5-trifluoromethyl-4,5-dihydro-isoxazol-3-yl]-2-methyl-N-[3-oxo-2-ethyl-isoxazolidin-5-ylmethyl]-benzamide]
≥ 80%: pest or weed control at 200 ppm (Thrips tabaci) | pest or weed control at 200 ppm (Tetranychus urticae) | pest or weed control at 200 ppm (Diabrotica balteata) | pest or weed control at 200 ppm (Heliothis virescens) | pest or weed control at 200 ppm (Spodoptera littoralis) | pest or weed control at 200 ppm (Plutella xylostella)

Cc1cc(C2=NOC(c3cc(Cl)cc(Cl)c3)(C(F)(F)F)C2)ccc1C(=O)N[C@@H]1CONC1=O (stereo partly drawn) [Compound B1, 4-[5-(3,5-Dichloro-phenyl)-5-trifluoromethyl-4,5-dihydro-isoxazol-3-yl]-2-methyl-N-((R)-3-oxo-isoxazolidin-4-yl)-benzamide]
≥ 80%: pest or weed control at 200 ppm (Tetranychus urticae) | pest or weed control at 200 ppm (Heliothis virescens) | pest or weed control at 200 ppm (Spodoptera littoralis) | pest or weed control at 200 ppm (Plutella xylostella)

Cc1cc(C2=NOC(c3cc(Cl)cc(Cl)c3)(C(F)(F)F)C2)ccc1C(=O)N[C@@H]1CON(C2CCC2)C1=O (stereo partly drawn) [Compound B11, 4-[5-(3,5-Dichloro-phenyl)-5-trifluoromethyl-4,5-dihydro-isoxazol-3-yl]-2-methyl-N-((R)-2-(cyclobutyl)-3-oxo-isoxazolidin-4-yl)-benzamide]
≥ 80%: pest or weed control at 200 ppm (Thrips tabaci) | pest or weed control at 200 ppm (Tetranychus urticae) | pest or weed control at 200 ppm (Diabrotica balteata) | pest or weed control at 200 ppm (Spodoptera littoralis) | pest or weed control at 200 ppm (Plutella xylostella) | pest or weed control at 12.5 ppm (Myzus persicae)

Cc1cc(C2=NOC(c3cc(Cl)cc(Cl)c3)(C(F)(F)F)C2)ccc1C(=O)NCC1CO[S+]([O-])O1 (stereo not shown) [Compound F5, 4-[5-(3,5-dichlorophenyl)-5-(trifluoromethyl)-4H-isoxazol-3-yl]-2-methyl-N-[(2-oxido-1,3,2-dioxathiolan-2-ium-4-yl)methyl]benzamide]
≥ 80%: pest or weed control at 200 ppm (Thrips tabaci) | pest or weed control at 200 ppm (Tetranychus urticae) | pest or weed control at 200 ppm (Diabrotica balteata) | pest or weed control at 200 ppm (Heliothis virescens) | pest or weed control at 200 ppm (Spodoptera littoralis) | pest or weed control at 200 ppm (Plutella xylostella)

Cc1cc(C2=NOC(c3cc(Cl)cc(Cl)c3)(C(F)(F)F)C2)ccc1C(=O)N[C@@H]1CON(C2CSC2)C1=O (stereo partly drawn) [Compound B10, 4-[5-(3,5-Dichloro-phenyl)-5-trifluoromethyl-4,5-dihydro-isoxazol-3-yl]-2-methyl-N-((R)-2-(thietan-3-yl)-3-oxo-isoxazolidin-4-yl)-benzamide]
≥ 80%: pest or weed control at 200 ppm (Thrips tabaci) | pest or weed control at 200 ppm (Tetranychus urticae) | pest or weed control at 200 ppm (Diabrotica balteata) | pest or weed control at 200 ppm (Heliothis virescens) | pest or weed control at 200 ppm (Spodoptera littoralis) | pest or weed control at 200 ppm (Plutella xylostella)

Cc1cc(C2=NOC(c3cc(Cl)cc(Cl)c3)(C(F)(F)F)C2)ccc1C(=O)NCC1CC(=O)N(CC(F)(F)F)O1 (stereo not shown) [Compound F4, 4-[5-(3,5-Dichloro-phenyl)-5-trifluoromethyl-4,5-dihydro-isoxazol-3-yl]-2-methyl-N-[3-oxo-2-(1,1,1-trifluoroethyl)-isoxazolidin-5-ylmethyl]-benzamide]
≥ 80%: pest or weed control at 200 ppm (Thrips tabaci) | pest or weed control at 200 ppm (Tetranychus urticae) | pest or weed control at 200 ppm (Diabrotica balteata) | pest or weed control at 200 ppm (Heliothis virescens) | pest or weed control at 200 ppm (Spodoptera littoralis) | pest or weed control at 200 ppm (Plutella xylostella)

Cc1cc(C2=NOC(c3cc(Cl)cc(Cl)c3)(C(F)(F)F)C2)ccc1C(=O)N[C@@H]1CON(Cc2ccccc2)C1=O (stereo partly drawn) [Compound B4, 4-[5-(3,5-Dichloro-phenyl)-5-trifluoromethyl-4,5-dihydro-isoxazol-3-yl]-2-methyl-N-((R)-2-benzyl-3-oxo-isoxazolidin-4-yl)-benzamide]
≥ 80%: pest or weed control at 200 ppm (Thrips tabaci) | pest or weed control at 200 ppm (Tetranychus urticae) | pest or weed control at 200 ppm (Diabrotica balteata) | pest or weed control at 200 ppm (Heliothis virescens) | pest or weed control at 200 ppm (Spodoptera littoralis) | pest or weed control at 200 ppm (Plutella xylostella)

Cc1cc(C2=NOC(c3cc(Cl)cc(Cl)c3)(C(F)(F)F)C2)ccc1C(=O)NCC1CCN(Cc2ccccc2)O1 (stereo not shown) [Compound F1, N-(2-Benzyl-isoxazolidin-5-ylmethyl)-4-[5-(3,5-dichloro-phenyl)-5-trifluoromethyl-4,5-dihydro-isoxazol-3-yl]-2-methyl-benzamide]
≥ 80%: pest or weed control at 200 ppm (Thrips tabaci) | pest or weed control at 200 ppm (Tetranychus urticae) | pest or weed control at 200 ppm (Diabrotica balteata) | pest or weed control at 200 ppm (Heliothis virescens) | pest or weed control at 200 ppm (Spodoptera littoralis) | pest or weed control at 200 ppm (Plutella xylostella)

Cc1cc(C2=NOC(c3cc(Cl)cc(Cl)c3)(C(F)(F)F)C2)ccc1C(=O)NCC1CCN(C)O1 (stereo not shown) [Compound F2, N-(2-methyl-isoxazolidin-5-ylmethyl)-4-[5-(3,5-dichloro-phenyl)-5-trifluoromethyl-4,5-dihydro-isoxazol-3-yl]-2-methyl-benzamide]
≥ 80%: pest or weed control at 200 ppm (Thrips tabaci) | pest or weed control at 200 ppm (Tetranychus urticae) | pest or weed control at 200 ppm (Diabrotica balteata) | pest or weed control at 200 ppm (Heliothis virescens) | pest or weed control at 200 ppm (Spodoptera littoralis) | pest or weed control at 200 ppm (Plutella xylostella)

Cc1cc(C2=NOC(c3cc(Cl)cc(Cl)c3)(C(F)(F)F)C2)ccc1C(=O)N[C@@H]1CON(CCO)C1=O (stereo partly drawn) [Compound B9, 4-[5-(3,5-Dichloro-phenyl)-5-trifluoromethyl-4,5-dihydro-isoxazol-3-yl]-2-methyl-N-((R)-2-(2-hydroxy-ethyl)-3-oxo-isoxazolidin-4-yl)-benzamide]
≥ 80%: pest or weed control at 200 ppm (Thrips tabaci) | pest or weed control at 200 ppm (Tetranychus urticae) | pest or weed control at 200 ppm (Diabrotica balteata) | pest or weed control at 200 ppm (Heliothis virescens) | pest or weed control at 200 ppm (Spodoptera littoralis) | pest or weed control at 200 ppm (Plutella xylostella)

COc1ccc(N2CCC(CNC(=O)c3ccc(C4=NOC(c5cc(Cl)cc(Cl)c5)(C(F)(F)F)C4)cc3C)S2(=O)=O)cc1 (stereo not shown) [Compound F6, 4-[5-(3,5-Dichloro-phenyl)-5-trifluoromethyl-4,5-dihydro-isoxazol-3-yl]-N-[2-(4-methoxy-phenyl)-1,1-dioxo-1 lambda*6*-isothiazolidin-5-ylmethyl]-2-methyl-benzamide]
≥ 80%: pest or weed control at 200 ppm (Tetranychus urticae) | pest or weed control at 200 ppm (Diabrotica balteata) | pest or weed control at 200 ppm (Heliothis virescens) | pest or weed control at 200 ppm (Spodoptera littoralis) | pest or weed control at 200 ppm (Plutella xylostella)
